Among the data in patent US20240124454A1, “TRICYCLIC COMPOUND AND USE THEREOF” (NANJING ZAIMING PHARMACEUTICAL CO., LTD., priority 2020, published 2024) are IC50 values, retold here.

For orientation: IC50 means the concentration needed to halve the response being measured.

One data set concerns the target MAT2A (Homo sapiens (Human), UniProt P31153). The experiment in a line: MAT2A biochemical test (inorganic phosphate colorimetric, PiColorLock). Conditions: read-out: MAT2A inhibitory Activity IC50. The gist of the method:
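Compounds tested from 10 μM top concentration in 3-fold dilutions, preincubated 120 min at room temperature with MAT2A ([…] final) in Tris/KCl/MgCl2/EDTA/BSA buffer. Reaction started with […] L-methionine and 400 μM ATP, run 90 min at room temperature; phosphate read by PiColorLock after 30 min. IC50 fitted from % inhibition versus no-enzyme and DMSO controls.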

In another data set the target is CYP2D6 (Homo sapiens (Human), UniProt P10635). The experiment in a line: CYP2D6 inhibition in human liver microsomes (dextromethorphan substrate). Type of data set: in vitro ADME. Conditions: human liver microsome. Here is the method:
Test Example 7. Inhibitory Effect of Compound of the Present Application on Enzymatic Activity of CYP2C9, CYP2D6, and CYP3A4
The inhibition of CYP2C9, CYP2D6, and CYP3A4 activity by the compound of the present application was determined using the following method.
I. Experimental materials and instruments • 1. Human liver microsome (Corning 452117) • 2. NADPH (Solarbio 705Y021) • 3. Positive substrates diclofenac (Sigma SLBV3438), dextromethorphan (TRC 3-EDO-175-1), and midazolam (Cerilliant FE01161704) • 4. Positive inhibitors sulfaphenazole (D. Ehrenstorfer GmbH 109012), quinidine (TCI WEODL-RE), and ketoconazole (Sigma 100M1091V) • 5. AB Sciex Triple Quad 5500 liquid chromatography-mass spectrometry system
1. Preparation of 100 mM phosphate-buffered saline (PBS): 7.098 g Na2HPO4 was weighed. 500 mL pure water was added. The mixture was dissolved by sonication to give solution A. 3.400 g KH2PO4 was weighed. 250 mL pure water was added. The mixture was dissolved by sonication to give solution B. The solution A was placed in a stirrer, and the solution B was slowly added until the pH reached 7.4, so that the 100 mM PBS buffer was prepared.
2. A 10 mM NADPH solution was prepared with a 100 mM PBS buffer. A 10 mM stock solution of the compound of the present application was diluted with DMSO to give a compound working solution at a concentration of 200×(6000, 2000, 600, 200, 60, 20, and 0 μM). The positive inhibitor stock solution was diluted with DMSO to give a positive inhibitor working solution at a concentration of 200×(sulfaphenazole, 1000, 300, 100, 30, 10, 3, and 0 μM; quinidine/ketoconazole, 100, 30, 10, 3, 1, 0.3, and 0 μM). Substrate working solutions (120 μM diclofenac, 400 μM dextromethorphan, and 200 μM midazolam) at a concentration of 200× were prepared with water, acetonitrile, or acetonitrile/methanol.
3. 2 μL of 20 mg/mL liver microsome solution, 1 μL of substrate working solution, 1 μL of compound working solution, and 176 μL of PBS buffer were taken, mixed well, and placed in a 37° C. water bath for pre-incubation for 15 min. 1 μL of sulfaphenazole, quinidine, or ketoconazole working solution was added to the positive control group instead of the compound working solution. At the same time, 10 mM NADPH solution was placed together in the 37° C. water bath for pre-incubation for 15 min. After 15 min, 20 μL of NADPH was added to each well to initiate the reaction. The mixture was incubated at 37° C. for 5 min (CYP2C9), 20 min (CYP2D6), or 5 min (CYP3A4). All incubated samples were in duplicate. After incubation for the corresponding period of time, 400 μL of icy methanol containing internal standard was added to all samples to stop the reaction. The mixture was vortexed, mixed well, and centrifuged for 40 min at 4° C. at 3220 g. 100 μL of the supernatant was transferred to a feeding plate after the centrifugation was completed, and 100 μL ultrapure water was added. The mixture was well mixed for LC-MS/MS analysis.
The reduction of metabolite production in the treatment groups versus the control group was compared by the peak area ratios of the sample to the internal standard, and the IC50 value was calculated using Excel XLfit 5.3.1.3.
Percentages of remaining activity were calculated according to the following formula:
Remaining activity%=peak area ratio of metabolite to internal standardtest sample/peak area ratio of metabolite to internal standardblank solvent×100%.
A general note: Microsomes from liver hold many membrane-bound enzymes, among them those of drug oxidation.

Read-outs that look alike come from different tables or passages of the source.

Chain of CYP2D6 (P10635 whole entry): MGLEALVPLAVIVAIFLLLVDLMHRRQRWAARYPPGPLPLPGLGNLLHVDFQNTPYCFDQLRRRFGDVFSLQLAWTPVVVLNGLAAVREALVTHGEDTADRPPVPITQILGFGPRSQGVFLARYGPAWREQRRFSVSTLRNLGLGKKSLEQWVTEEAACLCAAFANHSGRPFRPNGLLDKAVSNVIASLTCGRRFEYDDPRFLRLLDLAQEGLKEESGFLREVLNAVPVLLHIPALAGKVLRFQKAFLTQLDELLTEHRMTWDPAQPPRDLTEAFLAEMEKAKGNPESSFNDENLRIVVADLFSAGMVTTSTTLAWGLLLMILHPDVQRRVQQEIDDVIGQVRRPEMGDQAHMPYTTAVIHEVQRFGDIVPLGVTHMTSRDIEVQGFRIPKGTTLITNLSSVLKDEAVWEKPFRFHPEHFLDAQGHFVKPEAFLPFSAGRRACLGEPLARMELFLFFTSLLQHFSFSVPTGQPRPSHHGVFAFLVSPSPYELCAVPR
Chain of MAT2A (P31153 whole entry): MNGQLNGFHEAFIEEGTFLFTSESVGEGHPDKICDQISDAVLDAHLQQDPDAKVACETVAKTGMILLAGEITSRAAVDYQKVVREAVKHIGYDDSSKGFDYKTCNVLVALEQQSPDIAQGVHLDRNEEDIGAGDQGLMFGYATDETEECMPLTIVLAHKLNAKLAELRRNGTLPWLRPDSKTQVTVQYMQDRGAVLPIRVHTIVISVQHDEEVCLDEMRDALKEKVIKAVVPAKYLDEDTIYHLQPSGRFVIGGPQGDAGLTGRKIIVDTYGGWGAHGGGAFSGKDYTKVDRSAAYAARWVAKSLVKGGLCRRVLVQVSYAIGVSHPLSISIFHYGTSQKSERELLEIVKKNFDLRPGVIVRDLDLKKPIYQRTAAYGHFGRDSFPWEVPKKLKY

`Cc1ncccc1-n1c(=O)c2ncn(C)c2c2ccc(C(F)(F)F)nc21` (atropisomer, axis not shown) [Compound 20, 1-methyl-5-(2-methylpyridin-3-yl)-7-(trifluoromethyl)-1,5-dihydro-4H-imidazo[4,5-c][1,8]naphthyridin-4-one]: the 50% inhibitory concentration (IC50) on MAT2A (class symbols) was under 100 nM; on MAT2A (numeric values), 54.9 nM; at CYP2D6, over 30000 nM.

On to `Cn1cnc2c(=O)n(-c3cccc(F)c3Cl)c3nc(C(F)(F)F)ccc3c21` (atropisomer, axis not shown) [Compound 25, 5-(2-chloro-3-fluorophenyl)-1-methyl-7-(trifluoromethyl)-1,5-dihydro-4H-imidazo[4,5-c][1,8]naphthyridin-4-one], for which the figures for the IC50 on MAT2A (class symbols), at MAT2A (numeric values) and against CYP2D6 were under 100 nM, 48 nM and over 30000 nM, respectively.

Regarding `Cn1cnc2c(=O)n(-c3cccc(F)c3Cl)c3nc(C(F)(F)F)ccc3c21` (single isomer, unassigned) [Compound 25-P2, 5-(2-chloro-3-fluorophenyl)-1-methyl-7-(trifluoromethyl)-1,5-dihydro-4H-imidazo[4,5-c][1,8]naphthyridin-4-one], the half-maximal inhibitory concentration (IC50) was under 100 nM on MAT2A (class symbols), 20.6 nM at MAT2A (numeric values) and over 30000 nM on CYP2D6.

As for `Cn1cnc2c(=O)n(-c3cccnc3C(F)(F)F)c3nc(C(F)(F)F)ccc3c21` (single isomer, unassigned) [Compound 41-P2, 1-methyl-7-(trifluoromethyl)-5-(2-(trifluoromethyl)pyridin-3-yl)-1,5-dihydro-4H-imidazo[4,5-c][1,8]naphthyridin-4-one], the IC50 at MAT2A (class symbols) is under 100 nM; at MAT2A (numeric values), 22.3 nM; against CYP2D6, 18200 nM.

Take `Cn1cnc2c(=O)n(-c3cccnc3C3CC3)c3nc(C(F)(F)F)ccc3c21` (single isomer, unassigned) [Compound 42-P2, 5-(2-cyclopropylpyridin-3-yl)-1-methyl-7-(trifluoromethyl)-1,5-dihydro-4H-imidazo[4,5-c][1,8]naphthyridin-4-one]: the values for the IC50 at MAT2A (class symbols), on MAT2A (numeric values) and at CYP2D6 were under 100 nM, 20.3 nM and over 30000 nM, respectively.

Regarding `Cn1cnc2c(=O)n(-c3cccnc3C3CC3)c3cc(C(F)(F)F)ccc3c21` (single isomer, unassigned) [Compound 48-P2, 5-(2-cyclopropylpyridin-3-yl)-1-methyl-7-(trifluoromethyl)-1,5-dihydro-4H-imidazo[4,5-c]quinolin-4-one], the IC50 is under 100 nM at MAT2A (class symbols), 21.4 nM at MAT2A (numeric values) and over 30000 nM against CYP2D6.

On to `Cn1cnc2c(=O)n(-c3cccnc3C3CC3)c3cc(Cl)ccc3c21` (single isomer, unassigned) [Compound 49-P2, 7-chloro-5-(2-cyclopropylpyridin-3-yl)-1-methyl-1,5-dihydro-4H-imidazo[4,5-c]quinolin-4-one], for which the IC50 is under 100 nM on MAT2A (class symbols), 18.7 nM at MAT2A (numeric values) and over 30000 nM on CYP2D6.

On to `O=c1c2ncoc2c2ccc(C(F)(F)F)nc2n1-c1cccnc1C1CC1` (single isomer, unassigned) [Compound 81-P2, 5-(2-cyclopropylpyridin-3-yl)-7-(trifluoromethyl)oxazolo[4,5-c][1,8]naphthyridin-4(5H)-one], for which the IC50 at MAT2A (class symbols) was under 100 nM; at MAT2A (numeric values) it was 36.2 nM; on CYP2D6 it was over 30000 nM.

Take `Cn1cnc2c(=O)n(-c3cccc(F)c3Cl)c3cc(Cl)ccc3c21` [Compound 39, 7-chloro-5-(2-chloro-3-fluorophenyl)-1-methyl-1,5-dihydro-4H-imidazo[4,5-c]quinolin-4-one]: the results for the IC50 on MAT2A (class symbols), at MAT2A (numeric values) and on CYP2D6 were under 100 nM, 60.4 nM and over 30000 nM, respectively.

In the case of `Cc1ncccc1-n1c(=O)c2ncoc2c2ccc(C(F)(F)F)nc21` [Compound 40, 5-(2-methylpyridin-3-yl)-7-(trifluoromethyl)oxazolo[4,5-c][1,8]naphthyridin-4(5H)-one], the values for the IC50 on MAT2A (class symbols), at MAT2A (numeric values) and against CYP2D6 were under 100 nM, 43 nM and over 30000 nM, respectively.

Regarding `Cc1ncccc1-n1c(=O)c2ncn(C)c2c2ccc(C(F)(F)F)cc21` [Compound 45, 1-methyl-5-(2-methylpyridin-3-yl)-7-(trifluoromethyl)-1,5-dihydro-4H-imidazo[4,5-c]quinolin-4-one], the IC50 at MAT2A (class symbols) is under 100 nM; on MAT2A (numeric values) it was 47 nM; against CYP2D6, over 30000 nM.
